In PMC9477735, “Phosphorylation of muramyl peptides by NAGK is required for NOD2 activation” (Nature, 2022):

Columns and labels:
[1] = target: T1, N-acetylglucosamine kinase (NAGK) (Homo sapiens, UniProt Q9UJ70); test: in vitro kinase assay with [γ-32P]ATP and TLC; LC-MS/MS; NMR of product; assay type: biochemical
T1 construct: full-length human NAGK, recombinant from E. coli, His-MBP tag removed

[2] = target: T1, N-acetylglucosamine kinase (NAGK); test: in vitro kinase assay with [γ-32P]ATP and TLC; assay type: biochemical

T1 sequence (Q9UJ70 2-344): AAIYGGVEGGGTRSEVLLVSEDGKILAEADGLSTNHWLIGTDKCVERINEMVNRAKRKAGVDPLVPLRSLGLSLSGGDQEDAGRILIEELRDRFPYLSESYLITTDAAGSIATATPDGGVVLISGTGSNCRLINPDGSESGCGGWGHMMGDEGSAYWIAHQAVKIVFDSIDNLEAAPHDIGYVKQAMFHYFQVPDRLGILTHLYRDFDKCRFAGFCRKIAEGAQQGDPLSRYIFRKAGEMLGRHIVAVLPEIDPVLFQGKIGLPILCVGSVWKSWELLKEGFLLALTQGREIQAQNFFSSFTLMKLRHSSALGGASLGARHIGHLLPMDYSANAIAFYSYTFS

Compound	in vitro kinase assay with [γ-32P]ATP and TLC; LC-MS/MS; NMR of product [1]	in vitro kinase assay with [γ-32P]ATP and TLC [2]
CC(=O)N[C@H]1C(O)O[C@H](CO)[C@@H](O)[C@@H]1O[C@H](C)C(=O)N[C@@H](C)C(=O)N[C@H](CCC(=O)O)C(N)=O (some centres unmarked) [MDP]	These assays revealed that NAGK readily phosphorylated MDP and the related molecule N-acetylmuramic acid (MurNAc)	–
CC(=O)N[C@H]1C(O)O[C@H](CO)[C@@H](O)[C@@H]1O (some centres unmarked) [GlcNAc, N-acetylglucosamine]	–	to similar levels as its bona fide substrate GlcNAc (Fig. 3b)
